Measurements: publication PMC9841532, “Exploring the Effect of Halogenation in a Series of Potent and Selective A2B Adenosine Receptor Antagonists” (Journal of Medicinal Chemistry, 2022)
Where two headings read alike, the source gives them in different places.

Key:
[1] = biological target: T1, hA1AR (Homo sapiens, UniProt P30542); assay: Radioligand binding competition, [3H]DPCPX, membranes from CHO-A1 cells; settings: 1 μM, [3H]DPCPX, human CHO cells, n = 2
T1 sequence (P30542 1-326): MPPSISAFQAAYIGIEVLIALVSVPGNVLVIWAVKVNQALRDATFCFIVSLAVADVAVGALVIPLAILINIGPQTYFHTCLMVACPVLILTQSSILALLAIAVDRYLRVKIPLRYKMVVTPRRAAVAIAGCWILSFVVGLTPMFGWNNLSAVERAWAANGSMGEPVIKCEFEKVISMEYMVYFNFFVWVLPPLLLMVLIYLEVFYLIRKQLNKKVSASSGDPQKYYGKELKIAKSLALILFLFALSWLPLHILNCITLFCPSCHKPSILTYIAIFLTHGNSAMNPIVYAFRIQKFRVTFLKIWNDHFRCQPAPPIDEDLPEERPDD
How it was run: (§1)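 Racemates, plus selected enantiomers after chiral resolution, were tested at 25 °C, with a 60 min incubation for one subtype and 30 min for others. Non-specific binding was defined with 10 μM or 100 μM R-PIA. Bound radioactivity was counted after washing and filtration.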

[2] = biological target: T2, hA2AAR (Homo sapiens, UniProt P29274); assay: Radioligand binding competition, [3H]ZM241385, membranes from HeLa-A2A cells; settings: 1 μM, [3H]ZM241385, human HeLa cells, n = 2
T2 construct: expressed in transfected cells; host or cells: HeLa (HeLa-A2A) cell membranes
How it was run: as §1

[3] = biological target: T3, hA2BAR (Homo sapiens, UniProt P29275); assay: Radioligand binding competition, [3H]DPCPX, membranes from HEK-293-A2B cells; parameters: Exp. dG: unit not given here; settings: for Ki: read-out: Ki hA2B; for Exp. dG: experimental binding free energy, Supplementary Table S3, unit not given (errors in kcal/mol); for % at 1 μM hA2B (percentage displacement of specific binding): [3H]DPCPX, human HEK-293 cells, n = 2
T3 construct: host or cells: HEK-293 (HEK-293-A2B) cell membranes
T3 sequence (P29275 1-332): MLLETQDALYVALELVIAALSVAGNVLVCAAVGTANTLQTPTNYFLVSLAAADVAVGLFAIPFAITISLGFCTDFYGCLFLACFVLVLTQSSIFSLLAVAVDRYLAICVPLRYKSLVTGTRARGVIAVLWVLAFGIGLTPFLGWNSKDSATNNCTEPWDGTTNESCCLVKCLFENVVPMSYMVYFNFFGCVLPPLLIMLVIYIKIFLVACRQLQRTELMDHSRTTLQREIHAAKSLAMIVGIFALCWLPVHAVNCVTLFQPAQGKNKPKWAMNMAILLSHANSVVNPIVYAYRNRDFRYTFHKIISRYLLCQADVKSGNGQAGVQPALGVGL
How it was run: as §1

[4] = biological target: T4, hA3AR (Homo sapiens, UniProt P0DMS8); assay: Radioligand binding competition, [3H]NECA, membranes from HeLa-A3 cells; settings: 1 μM, [3H]NECA, human HeLa cells, n = 2
T4 construct: expressed in transfected cells; host or cells: HeLa (HeLa-A3) cell membranes
T4 sequence (P0DMS8 1-318): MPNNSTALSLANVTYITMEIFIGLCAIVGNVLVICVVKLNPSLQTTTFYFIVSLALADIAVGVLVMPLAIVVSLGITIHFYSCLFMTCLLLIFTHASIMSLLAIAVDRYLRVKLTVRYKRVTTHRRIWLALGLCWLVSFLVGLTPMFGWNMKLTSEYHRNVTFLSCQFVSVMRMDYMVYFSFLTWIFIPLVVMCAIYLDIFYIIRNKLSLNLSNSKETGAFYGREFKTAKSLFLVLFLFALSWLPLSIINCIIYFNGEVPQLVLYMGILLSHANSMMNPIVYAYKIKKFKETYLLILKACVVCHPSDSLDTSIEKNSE
How it was run: as §1

[5] = displacement of specific [3H]DPCPX binding in human HEK-293 cells, n = 3

T2 sequence (P29274 whole entry): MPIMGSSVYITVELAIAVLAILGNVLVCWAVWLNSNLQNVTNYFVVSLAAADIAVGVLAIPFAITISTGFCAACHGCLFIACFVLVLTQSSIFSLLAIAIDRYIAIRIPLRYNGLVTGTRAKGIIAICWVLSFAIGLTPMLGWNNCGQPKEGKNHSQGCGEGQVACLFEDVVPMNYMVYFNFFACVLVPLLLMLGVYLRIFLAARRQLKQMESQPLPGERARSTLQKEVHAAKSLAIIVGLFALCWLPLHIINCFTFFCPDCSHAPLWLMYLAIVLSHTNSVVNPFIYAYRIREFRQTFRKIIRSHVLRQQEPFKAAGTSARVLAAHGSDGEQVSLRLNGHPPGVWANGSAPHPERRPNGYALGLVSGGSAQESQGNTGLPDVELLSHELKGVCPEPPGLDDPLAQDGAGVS

| SMILES | % at 1 μM hA1 (percentage displacement of specific binding) [1] | % at 1 μM hA2A (percentage displacement of specific binding) [2] | Ki [3, 5] | Exp. dG [3] | % at 1 μM hA3 (percentage displacement of specific binding) [4] | % at 1 μM hA2B (percentage displacement of specific binding) [3] | Ki [3] |
| --- | --- | --- | --- | --- | --- | --- | --- |
| CC1=C(C(=O)OC(C)C)C(c2cocn2)n2c(nc3ccc(Cl)cc32)N1 (stereo not shown) [17d] | 27% | 1% | 102 ± 7 nM | -9.528 | 20% |  |  |
| CC1=C(C(=O)OC(C)C)[C@H](c2ccco2)n2c(nc3cc(Br)ccc32)N1 [(R)-16r] | 12% | 7% |  |  | 2% | 35% |  |
| CC1=C(C(=O)OC(C)C)C(c2ccoc2)n2c(nc3ccc(Br)cc32)N1 (stereo not shown) [15t] | 11% | 3% |  |  | 12% | 26% |  |
| CCOC(=O)C1=C(C)Nc2nc3cc(Cl)ccc3n2C1c1ccco1 (stereo not shown) [16i] | 23% | 10% | 8.42 ± 1.4 nM | -11.01 | 4% |  | < 10 nM |
| CCOC(=O)C1=C(C)Nc2nc3cc(Cl)c(Cl)cc3n2C1c1cccs1 (stereo not shown) [14m] | 2% | 1% |  |  | 11% | 9% |  |
| CC1=C(C(=O)OC(C)C)C(c2ccco2)n2c(nc3cc(Br)c(Br)cc32)N1 (stereo not shown) [14r] | 11% | 28% | 62.6 ± 1.9 nM |  | 21% |  |  |
| CCOC(=O)C1=C(C)Nc2nc3cc(F)c(F)cc3n2C1c1ccco1 (stereo not shown) [14a] | 1% | 2% | 44.1 ± 1.7 nM |  | 2% |  |  |
| CC1=C(C(=O)OC(C)C)C(c2cccs2)n2c(nc3cc(Cl)c(Cl)cc32)N1 (stereo not shown) [14n] | 1% | 4% |  |  | 9% | 1% |  |
| CCOC(=O)C1=C(C)Nc2nc3cc(Cl)ccc3n2[C@H]1c1cocn1 [(R)-18c] | 9% | 32% |  |  | 15% | 26% |  |
| CCOC(=O)C1=C(C)Nc2nc3cc(Cl)ccc3n2C1c1ccsc1 (stereo not shown) [16o] | 2% | 7% | 911 ± 14 nM | -8.235 | 8% |  |  |
| CCOC(=O)C1=C(C)Nc2nc3ccc(Cl)cc3n2C1c1ccco1 (stereo not shown) [15i] | 26% | 2% |  |  | 4% | 18% |  |
| CC1=C(C(=O)OC(C)C)C(c2ccoc2)n2c(nc3ccc(F)cc32)N1 (stereo not shown) [15d] | 25% | 11% | 136 ± 7 nM | -10.36 | 6% |  |  |
| CC1=C(C(=O)OC(C)C)C(c2ccco2)n2c(nc3ccc(Br)cc32)N1 (stereo not shown) [15r] | 46% | 1% | 273 ± 4 nM |  | 6% |  | ~45 nM |
| CCOC(=O)C1=C(C)Nc2nc3cc(Br)ccc3n2[C@H]1c1ccoc1 [(S)-16s] | 11% | 16% |  |  | 10% | 34% |  |
| CC1=C(C(=O)OC(C)C)C(c2ccoc2)n2c(nc3cc(Br)c(Br)cc32)N1 (stereo not shown) [14t] | 1% | 1% |  |  | 9% | 32% |  |
| CC1=C(C(=O)OC(C)C)C(c2ccsc2)n2c(nc3cc(Br)c(Br)cc32)N1 (stereo not shown) [14x] | 4% | 1% |  |  | 8% | 9% |  |
| CC1=C(C(=O)OC(C)C)C(c2ccoc2)n2c(nc3cc(Cl)c(Cl)cc32)N1 (stereo not shown) [14l] | 4% | 31% |  |  | 8% | 36% |  |
| CCOC(=O)C1=C(C)Nc2nc3ccc(F)cc3n2C1c1ccoc1 (stereo not shown) [15c] | 26% | 21% | 25 ± 1.5 nM | -9.361 | 5% |  |  |
| CCOC(=O)C1=C(C)Nc2nc3cc(Br)c(Br)cc3n2C1c1ccco1 (stereo not shown) [14q] | 1% | 17% |  |  | 2% | 37% |  |
| CCOC(=O)C1=C(C)Nc2nc3cc(F)ccc3n2C1c1ccsc1 (stereo not shown) [16g] | 1% | 1% | 187 ± 2 nM | -9.172 | 3% |  |  |
| CC1=C(C(=O)OC(C)C)C(c2ccoc2)n2c(nc3cc(F)c(F)cc32)N1 (stereo not shown) [14d] | 17% | 16% | 52.9 ± 1.5 nM |  | 20% |  |  |
| CCOC(=O)C1=C(C)Nc2nc3cc(Br)c(Br)cc3n2C1c1ccsc1 (stereo not shown) [14w] | 2% | 7% |  |  | 4% | 47% |  |
| CCOC(=O)C1=C(C)Nc2nc3ccc(F)cc3n2C1c1cccs1 (stereo not shown) [15e] | 25% | 1% |  |  | 11% | 37% |  |
